{
  "source": "paper PMC11946187",
  "about": "(Viruses, 2025)",
  "key": {"[1]": {"target": "SFTSV endonuclease (full-length L protein) (Dabie bandavirus, UniProt I0DF35)", "experiment": "biochemical", "set-up": "species or system severe fever with thrombocytopenia syndrome virus"}, "[2]": {"target": "SFTSV L protein (RNA synthesis) (Dabie bandavirus, UniProt I0DF35)", "format": "biochemical, severe fever with thrombocytopenia syndrome virus"}, "[3]": {"system": "SNV L protein (RNA synthesis)", "format": "biochemical, Sin Nombre virus"}, "[4]": {"target": "IBV endonuclease (full-length IBV RdRp complex PA/PB1/PB2) (Influenza B virus, UniProt Q5V8Z9)", "experiment": "biochemical"}, "[5]": {"target": "SNV endonuclease (full-length L protein) (Sin Nombre orthohantavirus, UniProt A0A059WLS4)", "experiment": "biochemical", "set-up": "species or system Sin Nombre virus"}, "[6]": {"system": "IBV RdRp (RNA synthesis)", "format": "biochemical, influenza B virus"}},
  "note": "“Also recorded” adds a separate entry of the source. Like-named read-outs stand apart in the source and are kept apart here.",
  "data": [
    {"smiles": "O=C1c2c(O)c(=O)ccn2N([C@@H]2c3ccccc3SCc3c2ccc(F)c3F)[C@@H]2COCCN12", "note": "[BXA, Baloxavir acid, reference compound]", "values": [
      {"measurement": "IC50", "setting": "[1]; IC50 (μM) SFTSV (Figure 7B)", "result": 16, "unit": "µM"},
      {"measurement": "IC50", "setting": "[1]; IC50, SFTSV endonuclease activity", "result": 16.5, "unit": "µM"},
      {"measurement": "inhibition of RNA synthesis by SFTSV", "setting": "[2]", "result": "lack of inhibition of; also recorded: did not inhibit RNA synthesis"},
      {"measurement": "inhibition of RNA synthesis by SNV", "setting": "[3]", "result": "lack of inhibition of; also recorded: did not inhibit RNA synthesis"},
      {"measurement": "IC50", "setting": "[4]; IC50 (μM) IBV (Figure 7B)", "result": "0.21 ± 0.006", "unit": "µM"},
      {"measurement": "IC50", "setting": "[4]; IC50, endonuclease activity of IBV", "result": 0.209, "unit": "µM"},
      {"measurement": "concentration from which inhibition of SNV endonuclease became evident", "setting": "[5]", "result": "~ 250 µM"},
      {"measurement": "IC50", "setting": "[5]; IC50 (μM) SNV (Figure 7B)", "result": "> 100", "unit": "µM"},
      {"measurement": "IC50", "setting": "[5]; IC50, SNV endonuclease activity", "result": 622, "unit": "µM"},
      {"measurement": "inhibition of RNA synthesis by IBV", "setting": "[6]", "result": "lack of inhibition of; also recorded: did not inhibit RNA synthesis"}
    ]},
    {"smiles": "CC(C)N1CN([C@H]2c3ccccc3SCc3c2ccc(F)c3F)n2ccc(=O)c(O)c2C1=O", "note": "[kCPF855]", "values": [
      {"measurement": "IC50", "setting": "[1]; IC50 (μM) SFTSV (Figure 7B)", "result": "> 100", "unit": "µM"},
      {"measurement": "inhibition of RNA synthesis by SFTSV", "setting": "[2]", "result": "lack of inhibition of RNA synthesis"},
      {"measurement": "inhibition of RNA synthesis by SNV", "setting": "[3]", "result": "lack of inhibition of RNA synthesis"},
      {"measurement": "IC50", "setting": "[4]", "result": "0.71 ± 0.03", "unit": "µM"},
      {"measurement": "IC50", "setting": "[5]; IC50 (μM) SNV (Figure 7B)", "result": "> 100", "unit": "µM"},
      {"measurement": "inhibition of RNA synthesis by IBV", "setting": "[6]", "result": "lack of inhibition of RNA synthesis"}
    ]},
    {"smiles": "O=C1c2c(O)c(=O)ccn2N([C@@H]2c3ccccc3CSc3ccccc32)[C@@H]2COCCN12", "note": "[kCOT912, (R)-12-((R)-6,11-dihydrodibenzo[b,e]thiepin-11-yl)-7-hydroxy-3,4,12,12a-tetrahydro-1H-[1,4]oxazino[3,4-c]pyrido[2,1-f][1,2,4]triazine-6,8-dione]", "values": [
      {"measurement": "IC50", "setting": "[1]; IC50 (μM) SFTSV (Figure 7B)", "result": "> 100", "unit": "µM"},
      {"measurement": "inhibition of RNA synthesis by SFTSV", "setting": "[2]", "result": "lack of inhibition of RNA synthesis"},
      {"measurement": "inhibition of RNA synthesis by SNV", "setting": "[3]", "result": "lack of inhibition of RNA synthesis"},
      {"measurement": "IC50", "setting": "[4]", "result": "> 100", "unit": "µM"},
      {"measurement": "IC50", "setting": "[5]; IC50 (μM) SNV (Figure 7B)", "result": "> 100", "unit": "µM"},
      {"measurement": "inhibition of RNA synthesis by IBV", "setting": "[6]", "result": "lack of inhibition of RNA synthesis"}
    ]},
    {"smiles": "O=C1c2c(O)c(=O)ccn2N(C2c3ccccc3SCc3c2ccc(F)c3F)C2COCCN12", "note": "[kCOT909, (R)-12-((R)-7,8-difluoro-6,11-dihydrodibenzo[b,e]thiepin-11-yl)-7-hydroxy-3,4,12,12a-tetrahydro-1H-[1,4]oxazino[3,4c]pyrido[2,1-f] [1,2,4]triazine-6,8-dione]", "values": [
      {"measurement": "IC50", "setting": "[1]; IC50 (μM) SFTSV (Figure 7B)", "result": "> 100", "unit": "µM"},
      {"measurement": "inhibition of RNA synthesis by SFTSV", "setting": "[2]", "result": "lack of inhibition of RNA synthesis"},
      {"measurement": "inhibition of RNA synthesis by SNV", "setting": "[3]", "result": "lack of inhibition of RNA synthesis"},
      {"measurement": "IC50", "setting": "[4]; IC50 (μM) IBV (Figure 7B)", "result": "0.32 ± 0.006", "unit": "µM"},
      {"measurement": "IC50", "setting": "[5]; IC50 (μM) SNV (Figure 7B)", "result": "> 100", "unit": "µM"},
      {"measurement": "inhibition of RNA synthesis by IBV", "setting": "[6]", "result": "lack of inhibition of RNA synthesis"}
    ]},
    {"smiles": "O=C(O)c1cn2c(c(O)c1=O)C(=O)N1CCOC[C@H]1N2[C@@H]1c2ccccc2SCc2c1ccc(F)c2F", "note": "[kCOT923, (R)-12-((S)-7,8-difluoro-6,11-dihydrodibenzo[b,e]thiepin-11-yl)-7-hydroxy-6,8-dioxo-3,4,6,8,12,12a-hexahydro-1H-[1,4]oxazino[3,4-c]pyrido[2,1-f][1,2,4]triazine-9-carboxylic acid]", "values": [
      {"measurement": "IC50", "setting": "[1]; IC50 (μM) SFTSV (Figure 7B)", "result": 41, "unit": "µM"},
      {"measurement": "inhibition of RNA synthesis by SFTSV", "setting": "[2]", "result": "lack of inhibition of RNA synthesis"},
      {"measurement": "inhibition of RNA synthesis by SNV", "setting": "[3]", "result": "lack of inhibition of RNA synthesis"},
      {"measurement": "IC50", "setting": "[4]", "result": "0.41 ± 0.02", "unit": "µM"},
      {"measurement": "IC50", "setting": "[5]; IC50 (μM) SNV (Figure 7B)", "result": "13 ± 3", "unit": "µM"},
      {"measurement": "inhibition of RNA synthesis by IBV", "setting": "[6]", "result": "lack of inhibition of RNA synthesis"}
    ]}
  ]
}
